According to patent US7875601B2, “Cancer treatment with epothilones” (Novartis AG, priority 1998, dated 2011):
Where “and” joins values, the source holds several entries; their conditions need not be identical. Equal values may be shown once. Marks after values point to notes of the source that are not given here.

What was measured:
[1] = test system: human estrogen-dependent ZR-75-1 breast tumors; experiment: Antitumor effect against s.c. transplanted ZR-75-1 breast tumors; format: in vivo, female BALB/c nude mice
Experimental: Female or male BALB/c nu/nu (nude) mice are kept under sterile conditions (10 to 12 mice per Type III cage) with free access to food and water. Mice weigh between 20 and 25 grams at the time of tumor implantation. Tumors are established by subcutaneous injection of cells (minimum 2×10^6 cells in 100 μl PBS or medium) in carrier mice (4-8 mice per cell line). The resulting tumors are serially passaged for a minimum of three consecutive transplantations prior to start of treatment. Tumor fragments (approx. 25 mg) are implanted s.c. into the left flank of animals with a 13-gauge trocar needle while the mice are exposed to Forene (Abbott, Switzerland) anesthesia.
Tumor growth and body weights are monitored once or twice weekly. All treatments are administered intravenously (i.v.) and are initiated when a mean tumor volume of approximately 100 to 250 mm^3 is attained, depending upon the tumor type. Tumor volumes are determined using the formula […] (see Cancer Chemother. Pharmacol. 24:148-154, [1989]). Treatments with epothilone B vary the dose and the frequency of administration. Comparator agents are administered according to previously determined optimal treatment regimens. In addition to presenting changes in tumor volumes over the course of treatment, antitumor activity is expressed as T/C % (mean increase of tumor volumes of treated animals divided by the mean increase of tumor volumes of control animals multiplied by 100). Tumor. regression (%) represents the smallest mean tumor volume compared to the mean tumor volume at the start of treatment, according to the formula Regression (%)=(1−Vend/Vstart)×100(Vend=final mean tumor volume, Vstart=mean tumor volume at the start of treatment. Any animals in which the tumor has reached a size exceeding approximately 1.5 to 2.5 cm^3 are sacrificed. Details can be found below.

[2] = Determination of the single i.v. dose MTD in female BALB/c nude mice; format: in vivo
Experimental: The Maximal Tolerated Dose (MTD) is determined according to standard procedures; preferably, in warm-blooded animals the MTD in case of oral or intravenous administration is determined as the Dose of a single administration where no death occurs and a loss of body weight of less than 40, preferably less than 25, percent (%) is found in the treated warm-blooded animal individual (this term here mainly referring to an animal; for humans see below).
For the MTD determination, female BALB/c nude mice or BALB/c mice (obtained from Novartis Animal Farm, Sisseln, Switzerland) are treated once intravenously with epothilone B (n=3 per dose group). The dosage is increased (2, 4, 6, 8, 10 and 12 mg/kg) and the mice are observed for the presentation of overt toxic effects for 10 days after drug treatment.

[3] = test system: A549 non-small cell lung tumors; experiment: Antitumor activity on A549 tumors, once weekly dosing (Example 8); format: in vivo, outbred athymic (nu/nu) mice; details: for body weight loss: 3 weeks experiment, reversible
Description: Materials and methods pertaining to the human tumor xenograft model are as previously described.
Measurements are taken for an additional 2 weeks after completion of the regular 3 weeks experiments, to evaluate reversibility of drug-induced body weight loss, and sustainability of antitumor effects.

ZR-75-1 (Breast) = experiment: Antiproliferative assay, ZR-75-1; format: cell-based, human; details: ZR-75-1, 5 d exposure, mean ± SD, n = 3; read-out: IC50 for growth inhibition
Experimental: Antiproliferative assays are performed as previously described (Int. J. Cancer 43, 851-6 (1989)). Briefly, cells are seeded at 1.5×10^3 cells/well into 96-well microtiter plates and incubated overnight. Compounds are added in serial dilutions on day 1. The plates are then incubated for an additional 2 to 5 days, allowing for at least one cell doubling (cell line dependent), after which the cells are fixed with 3.3% v/v glutaraldehyde, washed with water and stained with 0.05% w/v methylene blue. After washing, the dye is eluted with 3% v/v HCl and the optical density measured at 665 nm with a SpectraMax 340 (Bucherer, Basel, Switzerland). IC50 values are determined by a computerized system (SoftPro, Bucherer, Basel, Switzerland) using the formula (OD test−OD start)/(OD control−OD start)×100. IC50 is defined as the drug concentration which leads to 50% of cells per well compared to control cultures (100%) at the end of incubation period.

[4] = 1 mg/kg, i.v. every 7 days, day 47
[5] = 2 mg/kg, i.v. every 7 days, day 47
[6] = 4 mg/kg, i.v. every 7 days, day 47
[7] = 4 mg/kg, i.v. every 14 days, day 47
[8] = 1 mg/kg i.v. once weekly for 3 weeks, day 34
[9] = 1 mg/kg once weekly for 3 weeks, extended observation, day 48
[10] = 2 mg/kg i.v. once weekly for 3 weeks, day 34
[11] = 2 mg/kg once weekly for 3 weeks, extended observation, day 48
[12] = 3 mg/kg i.v. once weekly for 3 weeks, day 34
[13] = 3 mg/kg once weekly for 3 weeks, extended observation, day 48
[14] = 3.5 mg/kg i.v. once weekly for 3 weeks, day 34
[15] = 3.5 mg/kg once weekly for 3 weeks, extended observation, day 48

SMILES: C/C(=C\c1csc(C)n1)[C@@H]1C[C@@H]2O[C@]2(C)CCC[C@H](C)[C@H](O)[C@@H](C)C(=O)C(C)(C)[C@@H](O)CC(=O)O1 [epothilone B]
- % Body Weight Change [1, 4]: 2 ± 5%
- Regression [1, 4]: none
- Survival (No. alive/total) [1, 4]: 4/6
- T/C (%) [1, 4]: 86%
- Δ Body Weight [1, 4]: 0.3 ± 1.2 g
- Δ Tumor Volume (mm^3) [1, 4]: 393 ± 135 mm^3
- % Body Weight Change [1, 5]: −14 ± 6%
- Regression [1, 5]: none
- Survival (No. alive/total) [1, 5]: 5/6
- T/C (%) [1, 5]: 40%
- Δ Body Weight [1, 5]: -3.5 ± 1.6 g
- Δ Tumor Volume (mm^3) [1, 5]: 227 ± 76 mm^3
- T/C (%) ([1]; 4 mg/kg, i.v. every 7 days (days 19, 26 and 33), day 47): 1%
- % Body Weight Change [1, 6]: −5 ± 3%
- Survival (No. alive/total) [1, 6]: 3/6
- Δ Body Weight [1, 6]: -1.2 ± 0.6 g
- Δ Tumor Volume (mm^3) [1, 6]: 29 ± 16 mm^3
- Regression ([1]; 4 mg/kg, i.v. every 7 days, transient): −8%
- T/C (%) ([1]; 4 mg/kg, i.v. every 14 days (days 19 and 33), day 47): 46%
- % Body Weight Change [1, 7]: −7 ± 5%
- Regression [1, 7]: none
- Survival (No. alive/total) [1, 7]: 4/6
- Δ Body Weight [1, 7]: -1.6 ± 1.1 g
- Δ Tumor Volume (mm^3) [1, 7]: 208 ± 86 mm^3
- Body Weight % Change ([2]; 2 mg/kg single i.v. bolus): 4.2 ± 2.1%
- Body Weight Δ (mean g ± SD) ([2]; 2 mg/kg single i.v. bolus): 1.0 ± 0.5 g
- Mortalities ([2]; 2 mg/kg single i.v. bolus): 0/3
- Body Weight % Change ([2]; 4 mg/kg single i.v. bolus): −1.7 ± 2.9%
- Body Weight Δ (mean g ± SD) ([2]; 4 mg/kg single i.v. bolus): -0.4 ± 0.6 g
- Mortalities ([2]; 4 mg/kg single i.v. bolus): 0/3
- Body Weight % Change ([2]; 6 mg/kg single i.v. bolus): −4.2 ± 2.1%
- Body Weight Δ (mean g ± SD) ([2]; 6 mg/kg single i.v. bolus): -1.0 ± 0.5 g
- Mortalities ([2]; 6 mg/kg single i.v. bolus): 0/3
- Body Weight % Change ([2]; 8 mg/kg single i.v. bolus): −16.8 ± 12.2%
- Body Weight Δ (mean g ± SD) ([2]; 8 mg/kg single i.v. bolus): -3.8 ± 2.7 g
- Mortalities ([2]; 8 mg/kg single i.v. bolus): 1/3
- Body Weight % Change ([2]; 10 mg/kg single i.v. bolus): −23.7 ± 13.6%
- Body Weight Δ (mean g ± SD) ([2]; 10 mg/kg single i.v. bolus): -5.6 ± 3.3 g
- Mortalities ([2]; 10 mg/kg single i.v. bolus): 1/3
- Body Weight % Change ([2]; 12 mg/kg single i.v. bolus): −22.9 ± 3.1%
- Body Weight Δ (mean g ± SD) ([2]; 12 mg/kg single i.v. bolus): -5.1 ± 0.6 g
- Mortalities ([2]; 12 mg/kg single i.v. bolus): 3/3
- MTD ([2]; single dose i.v., nude mice): 6 mg/kg
- % T/C [3, 8]: 74% and 74^*,** %
- Dead/Total [3, 8]: 0/8
- Delta % Body Weight [3, 8]: +10.8%
- Delta Mean Tumor Vol. (mm^3 ± SEM) [3, 8]: 195 ± 21 mm^3
- Dead/Total [3, 9]: 0/8
- Delta % Body Weight [3, 9]: +12.6%
- Delta Mean Tumor Vol. (mm^3 ± SEM) [3, 9]: 339 ± 24 mm^3
- % T/C ([3]; 1 mg/kg once weekly for 3 weeks, extended observation, day 48 (week 5)): 72%
- % T/C [3, 10]: 43% and 43*^,** %
- Dead/Total [3, 10]: 0/8
- Delta % Body Weight [3, 10]: +0.9%
- Delta Mean Tumor Vol. (mm^3 ± SEM) [3, 10]: 113 ± 21 mm^3
- Dead/Total [3, 11]: 0/8
- Delta % Body Weight [3, 11]: +13.5%
- Delta Mean Tumor Vol. (mm^3 ± SEM) [3, 11]: 232 ± 39 mm^3
- % T/C ([3]; 2 mg/kg once weekly for 3 weeks, extended observation, day 48 (week 5)): 49* %
- % T/C [3, 12]: 23% and 23*^,** %
- Dead/Total [3, 12]: 0/8
- Delta % Body Weight [3, 12]: −16.4%
- Delta Mean Tumor Vol. (mm^3 ± SEM) [3, 12]: 60 ± 22 mm^3
- Dead/Total [3, 13]: 0/8
- Delta % Body Weight [3, 13]: +13.2%
- Delta Mean Tumor Vol. (mm^3 ± SEM) [3, 13]: 75 ± 25 mm^3
- % T/C ([3]; 3 mg/kg once weekly for 3 weeks, extended observation, day 48 (week 5)): 16*^,** %
- body weight loss ([3]; 3 mg/kg once weekly): approximately 15%
- % T/C [3, 14]: 15% and 15*^,** %
- Dead/Total [3, 14]: 0/8
- Delta % Body Weight [3, 14]: −14.6%
- Delta Mean Tumor Vol. (mm^3 ± SEM) [3, 14]: 40 ± 15 mm^3
- Dead/Total [3, 15]: 0/8
- Delta % Body Weight [3, 15]: +9.7%
- Delta Mean Tumor Vol. (mm^3 ± SEM) [3, 15]: 58 ± 25 mm^3
- % T/C ([3]; 3.5 mg/kg once weekly for 3 weeks, extended observation, day 48 (week 5)): 12*^,** %
- body weight loss ([3]; 3.5 mg/kg once weekly): approximately 15%
- IC50 (ZR-75-1 (Breast)): 0.64 ± 0.42 nM
